Reference: patent US20230382920A1, “SHMT Inhibitors” (The Trustees of Princeton University, priority 2020, published 2023)

Columns and labels:
[1] = Mouse liver microsome assay (metabolic stability); type: in vitro ADME; settings: mouse liver microsomes; for half-life at 2 µM: in vitro half-life; for microsomal CLint at 2 µM: in vitro intrinsic clearance, read-out: Relative Clint
Protocol: Example 6. Mouse Liver Microsome Assay
Metabolic stability of several compounds in mouse liver microsomes was tested. Briefly, a master solution was prepared according to Table 31.
Two separate experiments were performed: an experiment with cofactors and an experiment without cofactors. In the experiment with cofactors 40 μL of 10 mM NADPH and 40 μL of 20 mM UDPGA were added to the incubations. The final concentrations of microsomes, NADPH and UDPGA were 0.5 mg/mL, 1 mM and 2 mM, respectively. In the experiment without cofactors 10 μL of 20 mg/mL liver microsomes and 80 μL of ultra-pure H2O were added to the incubations. The final concentration of microsomes was 0.5 mg/mL. The mixture was pre-warmed at 37° C. for 5 minutes.
The reaction was started with the addition of 4 μL of 200 μM control compound or test compound solutions. Verapamil was used as positive control in this study. The final concentration of test compound was 2 μM and the final concentration of control compound was 1 μM. The incubation solution was incubated in water bath at 37° C.
Aliquots of 50 μL were taken from the reaction solution at 0.5, 5, 15, 30, 45 and 60 minutes. The reaction was stopped by the addition of five volumes of cold acetonitrile with IS (100 nM alprazolam, 200 nM caffeine and 100 nM tolbutamide). Samples were centrifuged at 3,220 g for 40 minutes. Aliquot of 100 μL of the supernatant was mixed with 100 μL of ultra-pure H2O and then subject to LC-MS/MS analysis.
All calculations were carried out using Microsoft Excel. Peak areas were determined from extracted ion chromatograms. The slope value, k, was determined by linear regression of the natural logarithm of the remaining percentage of the parent drug versus incubation time curve. The in vitro half-life (in vitro t½) was determined from the slope value:
Conversion of the in vitro t1/2(min) into the in vitro intrinsic clearance (in vitro CLint, in μL/min/mg protein) was done using the following equation (mean of duplicate determinations): […]

[2] = tested on: HCT116; test: HCT116 formate rescue assay (with sodium formate 1 mM); type: cell-based; settings: HCT116 growth
Protocol: (§1) Example 5. HCT116 Growth Inhibition and Formate Rescue Assays
(§2) 3,000 Cells were plated in each well of a 96-well plate with 80 μL of DMEM media supplemented with 10% dFBS, and incubated for 24 hours. Drugs with or without sodium formate (1 mM) were then added to each well to a final volume of 100 μL. Cell growth was measured as fluorescence intensity by resazurin after four days. In short, resazurin was added to each well to a final concentration of 10 μg·mL^−1. After incubation for one hour, fluorescence was measured by a Synergy HT plate reader (BioTek Instruments).

[3] = tested on: HCT116; test: HCT116 growth inhibition assay; type: cell-based; settings: without formate
Protocol: as §1, §2

Row | half-life at 2 µM [1] | microsomal CLint at 2 µM [1] | IC50 ([2]; Homo sapiens, HCT-116, 96 h) | IC50 [3] | IC50 [2] | SMILES
1 | 10 to 20 min | ≤ 70 µL/min/mg | > 5 µM | C″ |  | Cc1n[nH]c2c1C(c1cc(C#C[C@@H]3C[C@H]3CO)cc(CO)c1)(C(C)C)C(C#N)=C(N)O2 (some centres unmarked) [KDG-0136]
2 | < 5 min | > 250 µL/min/mg |  | A″ |  | Cc1n[nH]c2c1C(c1cc(C#C[C@H]3C[C@H](C(C)(C)O)C3)cc(CO)c1)(C(C)C)C(C#N)=C(N)O2 (some centres unmarked) [KDG-0258]
3 | < 5 min | > 250 µL/min/mg | > 5 µM | C″ |  | Cc1n[nH]c2c1C(c1cc(C#C[C@H]3C[C@@H](C(C)(C)O)C3)cc(C(C)(C)O)c1)(C(C)C)C(C#N)=C(N)O2 (some centres unmarked) [KDG-0261-100]
4 | < 5 min |  |  | C″ |  | Cc1n[nH]c2c1C(c1cc(C#C[C@H]3C[C@H](COC(N)=O)C3)cc(C(C)(C)O)c1)(C(C)C)C(C#N)=C(N)O2 (some centres unmarked) [KDG-0262]
5 | 5 to 10 min |  |  | C″ |  | Cc1n[nH]c2c1C(c1cc(C#C[C@H]3C[C@H](C(=O)N(C)C)C3)cc(CO)c1)(C(C)C)C(C#N)=C(N)O2 (some centres unmarked) [KDG-0265]
6 | < 5 min |  |  | B″ |  | Cc1n[nH]c2c1C(c1cc(C#C[C@H]3CC[C@@](C)(O)CC3)cc(CO)c1)(C(C)C)C(C#N)=C(N)O2 (some centres unmarked) [KDG-0270]
7 | < 5 min |  |  | B″ |  | Cc1n[nH]c2c1C(c1cc(C#CC3CCOCC3)cc(CO)c1)(C(C)C)C(C#N)=C(N)O2 (centres unmarked) [KDG-0273]
8 | < 5 min | > 250 µL/min/mg | > 5 µM | B″ |  | Cc1n[nH]c2c1C(c1cc(C#CC3CCCN3C(=O)OC(C)(C)C)cc(CO)c1)(C(C)C)C(C#N)=C(N)O2 (centres unmarked) [KDG-0280]
9 | 5 to 10 min | 100 to 250 µL/min/mg | < 0.1 µM | A″ |  | Cc1n[nH]c2c1C(c1cc(C#CC3CCN(C(=O)OC(C)(C)C)CC3)cc(CO)c1)(C(C)C)C(C#N)=C(N)O2 (centres unmarked) [KDG-0289]
10 | 5 to 10 min | 100 to 250 µL/min/mg | < 0.1 µM | C″ |  | Cc1n[nH]c2c1C(c1cc(C#CC3(C)CCN(C(=O)OC(C)(C)C)CC3)cc(CO)c1)(C(C)C)C(C#N)=C(N)O2 (centres unmarked) [KDG-0296]
11 | 5 to 10 min | 100 to 250 µL/min/mg | > 5 µM | B″ |  | Cc1n[nH]c2c1C(c1cc(C#CC3(F)CCN(C(=O)OC(C)(C)C)CC3)cc(CO)c1)(C(C)C)C(C#N)=C(N)O2 (centres unmarked) [KDG-0297]
12 | 5 to 10 min | > 250 µL/min/mg |  |  |  | Cc1n[nH]c2c1C(c1cc(C#CC3(C)CN(C(=O)OC(C)(C)C)C3)cc(CO)c1)(C(C)C)C(C#N)=C(N)O2 (centres unmarked) [KDG-0300]
13 | ≥ 20 min | ≤ 70 µL/min/mg | > 5 µM | A″ |  | Cc1n[nH]c2c1[C@](c1cc(C#CC3(C(F)(F)F)CN(C(=O)OC(C)(C)C)C3)cc(CO)c1)(C(C)C)C(C#N)=C(N)O2 [KDG-0301]
14 | ≥ 20 min | ≤ 70 µL/min/mg | > 5 µM | B″ |  | COC(=O)N1CC(F)(C#Cc2cc(CO)cc([C@@]3(C(C)C)C(C#N)=C(N)Oc4[nH]nc(C)c43)c2)C1 [KDG-0313]
15 | < 5 min | > 250 µL/min/mg | < 0.1 µM | A″ |  | Cc1n[nH]c2c1C(c1cc(C#C[C@H]3CC[C@@H](NC(=O)OC(C)(C)C)CC3)cc(CO)c1)(C(C)C)C(C#N)=C(N)O2 (some centres unmarked) [KDG-0321]
16 | 5 to 10 min | 100 to 250 µL/min/mg |  | A″ |  | Cc1n[nH]c2c1C(c1cc(C#CC3CN(C(=O)OC(C)(C)C)C3)cc(CF)c1)(C(C)C)C(C#N)=C(N)O2 (centres unmarked) [KDG-0345]

Row | half-life at 2 µM [1] | microsomal CLint at 2 µM [1] | IC50 ([2]; Homo sapiens, HCT-116, 96 h) | IC50 [3] | IC50 [2] | SMILES
17 |  |  |  | A″ | > 5 µM | Cc1n[nH]c2c1C(c1cc(C#C[C@H]3C[C@@H](NC(=O)OC(C)(C)C)C3)cc(CO)c1)(C(C)C)C(C#N)=C(N)O2 (stereo partly drawn) [KDG-0388-0pk2, tert-butyl N-[(1s,3s)-3-(2-[3-[(4R)-6-amino-5-cyano-4-isopropyl-3-methyl-1H-pyrano[2,3-c]pyrazol-4-yl]-5-(hydroxymethyl)phenyl]ethynyl)cyclobutyl]carbamate]
18 |  |  | < 0.1 µM | D″ |  | Cc1n[nH]c2c1[C@](c1cc(C#C[C@H]3C[C@@H](NC(=O)OC(C)(C)C)C3)cc(CO)c1)(C(C)C)C(C#N)=C(N)O2 [KDG-0388-Opk1, tert-butyl N-[(1s,3s)-3-(2-[3-[(4S)-6-amino-5-cyano-4-isopropyl-3-methyl-1H-pyrano[2,3-c]pyrazol-4-yl]-5-(hydroxymethyl)phenyl]ethynyl)cyclobutyl]carbamate]
19 | < 5 min |  |  |  |  | Cc1n[nH]c2c1C(c1cc(C#C[C@H]3C[C@H](C(=O)OC(C)(C)C)C3)cc(CO)c1)(C(C)C)C(C#N)=C(N)O2 (some centres unmarked) [KDG-0393]
20 | 10 to 20 min | 70 to 100 µL/min/mg | > 5 µM | D″ |  | Cc1n[nH]c2c1C(c1cc(C#CC3CN(C(=O)NC(C)(C)C)C3)cc(CO)c1)(C(C)C)C(C#N)=C(N)O2 (centres unmarked) [KDG-0412]
21 | 10 to 20 min | 70 to 100 µL/min/mg | < 0.1 µM | B″ |  | [2H]C([2H])(O)c1cc(C#CC2CN(C(=O)OC(C)(C)C)C2)cc(C2(C(C)C)C(C#N)=C(N)Oc3[nH]nc(C)c32)c1 (centres unmarked) [KDG-0413]
22 | 10 to 20 min | 70 to 100 µL/min/mg | < 0.1 µM | A″ |  | Cc1c[nH]c2c1C(c1cc(CO)cc(-c3ccc(C4CN(C(=O)OC(C)(C)C)C4)cc3)c1)(C(C)C)C(C#N)=C(N)O2 (centres unmarked) [KDG-0453]
23 | < 5 min |  |  | B″ |  | Cc1n[nH]c2c1C(c1cc(C#C[C@@H]3CC[C@@H]3CNC(=O)OC(C)(C)C)cc(CO)c1)(C(C)C)C(C#N)=C(N)O2 (some centres unmarked) [KDG-0490]
24 | < 5 min |  |  | A″ |  | Cc1n[nH]c2c1C(c1cc(C#C[C@H]3CC[C@@H](NC(=O)OC(C)(C)C)C3)cc(CO)c1)(C(C)C)C(C#N)=C(N)O2 (some centres unmarked) [KDG-0505]
25 | 5 to 10 min |  |  | B″ |  | Cc1n[nH]c2c1C(c1cc(C#C[C@H]3CC[C@H](NC(=O)OC(C)(C)C)C3)cc(CO)c1)(C(C)C)C(C#N)=C(N)O2 (some centres unmarked) [KDG-0506]
26 | 10 to 20 min |  |  | B″ |  | Cc1n[nH]c2c1C(c1cc(C#N)cc(C#CC3CN(C(=O)OC(C)(C)C)C3)c1)(C(C)C)C(C#N)=C(N)O2 (centres unmarked) [KDG-0543]
27 |  |  |  | D″ |  | Cc1n[nH]c2c1C(c1cc(C#CC3CN(C(=O)CN(C)C)C3)cc(CO)c1)(C(C)C)C(C#N)=C(N)O2 (centres unmarked) [KDG-0547]
28 |  |  |  | C″ |  | Cc1n[nH]c2c1C(c1cc(C#C[C@H]3C[C@@H](NC(=O)CN(C)C)C3)cc(CO)c1)(C(C)C)C(C#N)=C(N)O2 (some centres unmarked) [KDG-0554]
29 |  |  |  | C″ |  | Cc1n[nH]c2c1C(c1cc(C#C[C@H]3C[C@H](NC(=O)CN(C)C)C3)cc(CO)c1)(C(C)C)C(C#N)=C(N)O2 (some centres unmarked) [KDG-0555]
30 |  |  |  | C″ |  | Cc1n[nH]c2c1C(c1cc(C#CC34CC(C(=O)N(C)C)(C3)C4)cc(CO)c1)(C(C)C)C(C#N)=C(N)O2 (centres unmarked) [KDG-0558]
31 |  |  |  | B″ |  | Cc1nnc(C23CC(C#Cc4cc(CO)cc(C5(C(C)C)C(C#N)=C(N)Oc6[nH]nc(C)c65)c4)(C2)C3)o1 (centres unmarked) [KDG-0573]
32 |  |  |  | B″ |  | Cc1n[nH]c2c1C(c1cc(C#C[C@H]3C[C@@H](NC(=O)OC(C)(C)C)C3)cc(C(F)(F)F)c1)(C(C)C)C(C#N)=C(N)O2 (some centres unmarked) [KDG-0574]
